We go through one molecule from patent US9988348B1, “Synthesis and antimicrobial use of a trithiocarbonate derivative” (KING SAUD UNIVERSITY, priority 2017, dated 2018).

Common to all, as to experiment: disk diffusion assay, inhibition zone
Format in all cases: cell-based
For orientation: A growth-free zone around the sample is the usual read-out of agar diffusion tests.

In assay [1] the test system is Staphylococcus aureus ATCC. The conditions noted are these: S. aureus; 4 mg/disk; soluble water compound 4. Here is the method: (§1) To evaluate antimicrobial activity of the compound 4, synthesized in our laboratory as novel anti-bacterial and anti-fungal agents, the inhibition zone diameter (mm) and the minimal inhibitory concentration were determined according to (Andrews 2001; Hudzicki 2009). The test carried out on several clinical microorganisms included Gram positive bacteria (Staphylococcus aureus ATCC and Streptococcus mutans ATCC 35668), Gram negative bacteria (Escherichia coli ATCC 25922, Salmonella typhimurium ATCC 14028 and Neisseria meningitides ATCC 1302); yeasts (Candid albicans ATCC 60193, Cryptococcus neoformans Wild strain and Candida parapsilosus ATCC 22019) and molds (Aspergillus fumigatus AUMC 8794, Penicillum chrysogenum AUMC 9476 and Fusarium sp.)
(§2) The clinical microorganisms were cultivated at least three times on suitable culture medium and incubating conditions before susceptibility test. The concentration of microbial inoculation suspensions in sterile sodium chloride solution (0.89%) were adjusted to 0.65 at 620 nm by spectrophotometer. […]
(§3) After that, the disks were dried at 25° C. under sterile conditions by safety biological cabinet. A Mueller-Hinton agar (MHA) (Scharlau Microbiogy, Spain) and a potato dextrose agar (PDA) (Scharlau, Spain) were used to perform antibacterial and antifungal test respectively. The media were prepared according to manufacturer's guidelines. To prepare one liter of MHA and one liter of PDA, 21 grams of MHA and 39 grams of PDA were dissolved in one liter of sterile distilled water, followed by sterilization at 121° C. for 15 minutes by an autoclave (HL-321, Taiwan). The sterilized media were poured in sterile plastic Petri dishes at 50° C. The plates were allowed to let the medium solidify at room temperature. 0.1 ml of microbial inoculation suspensions were spread on dried surface of medium and were kept at 25° C. for 5-10 minutes. The compound 4 and standard antimicrobial drugs discs (Table 1) were dispensed on the surface of inoculated media. The tested bacteria and fungi were incubated at 37±1° C. for 19-22 hours and at 25±1 for 48-72 hours respectively. After the incubation, the diameter of inhibition zone (millimeter) resulting from the biological activity of compound were recorded.

In assay [2] the test system is Cryptococcus neoformans Wild strain. The conditions noted are these: C. neoformasn; 4 mg/disk; soluble water compound 4. The procedure: as §1, §2, §3
Assay [3] has as its system Aspergillus fumigatus AUMC 8794. The settings on record: A. fumigatus; 4 mg/disk; soluble water compound 4. Here is the method:
as §1, §2, §3

Assay [4] deals with Salmonella typhimurium ATCC 14028. The settings on record: Sa. typhimurium; 4 mg/disk; soluble water compound 4. The procedure: as §1, §2, §3
Assay [5] relates to Candid albicans ATCC 60193. The settings on record: C. albicans; 4 mg/disk; soluble water compound 4. The procedure: as §1, §2, §3
Assay [6] relates to Fusarium sp. The settings on record: Fusarium sp.; 4 mg/disk; soluble water compound 4. The procedure: as §1, §2, §3
Assay [7] has as its system Candida parapsilosus ATCC 22019. The conditions noted are these: C. parasilosus; 4 mg/disk; soluble water compound 4. Here is the method:
as §1, §2, §3

The test system of assay [8] is Escherichia coli ATCC 25922. The settings on record: E. coli; 4 mg/disk; soluble water compound 4. The procedure: as §1, §2, §3
Assay [9] has as its system Penicillum chrysogenum AUMC 9476. The conditions noted are these: P. chrysoginum; 4 mg/disk; soluble water compound 4. The procedure:
as §1, §2, §3

Assay [10] deals with Streptococcus mutans ATCC 35668. The settings on record: S. mutans. Here is the method: as §1, §2, §3
The subject of assay [11] is Neisseria meningitides ATCC 1302. The settings on record: N. meningitides.
Where [12] appears, read: 4 mg/disk, soluble water compound 4.

Several values for one entry are separate records, joined by “and”; a condition that tells them apart may be missing. Equal values may be shown once.

Regarding `CCOC(=O)CSC(=S)SCC(=O)OCC` [Compound 4, diethyl 2,2′-(thiocarbonylbis(sulfanediyl))diacetate], the Inhibition zone diameter in assay [1] was 10.6 ± 0.5 F* mm; in assay [2], 30 mm and 30 ± 1 B mm; in [3] it was 34.6 ± 0.5 A mm; in assay [4], 8.6 ± 0.5 F mm; in [5] it was 20 ± 1 D mm; in assay [6], 30 ± 1 B mm. Moreover, the Inhibition zone diameter is listed as 13 ± 1 E mm in assay [7]; 11.6 ± 0.5 E mm in assay [8]; 30.3 ± .5 B mm in assay [9]; 20 ± 1 D mm in assay [10] (setting [12]); 22.6 ± 0.5 C mm in assay [11] (setting [12]). In addition, the “biological activity, in words” value in [10] and in assay [11] was “very good” each time.
